Reference: patent US20260250289A1, “BICYCLIC HETEROCYCLES AND THEIR USE AS WRN INHIBITORS” (Novartis AG, priority 2022, published 2026)
pIC50: −log10 of the molar value. Where two headings read alike, the source gives them in different places.

Legend:
SW48 cells = experiment: Proliferation assay SW48 (CellTiterGlo); assay type: cell-based; conditions: Homo sapiens, SW48, 96 h, read-out: Proliferation Assay SW48 GI50
Excerpt: (§1) The colon carcinoma cell lines SW48 (RRID: CVCL_1724), HCT 116 (RRID: CVCL_0291) and SNU-407 (RRID: CVCL_5058) were obtained from ATCC. The WRN-knockdown insensitive colon carcinoma cell line DLD-1 (RRID: CVCL_0248) was obtained from the Korean Cell Line Bank (KCLB), and used to generate a derivative in which the endogenous WRN gene copies were knocked out by CRISPR-mediated editing using standard CRISPR methods. The resulting cell line, DLD1-WRN-KO, was used to assess potential off-target compound effects.
SW48, SNU-407 and DLD1-WRN-KO cells were cultured in growth medium composed of RPMI-1640 (Amimed Cat #1-41F22-1), 2 mM L-Glutamine (Amimed Cat #5-10K50), 10 mM HEPES (Gibco Cat #15630-056), 1 mM sodium pyruvate (Amimed Cat #5-60F00-H), 1× Penicillin-Streptomycin (Amimed Cat #4-01F00-H) and 10% fetal calf serum (Amimed Cat #2-01F30-G, Lot #LB11566P). HCT 116 cells were cultured in growth medium composed of McCoys 5A (Amimed catalog #1-18F01-1), 2 mM L-Glutamine (Amimed Cat #5-10K50), 1× Penicillin-Streptomycin (Amimed Cat #4-01F00-H) and 10% fetal calf serum (Amimed Cat #2-01F30-G, Lot #LB11566P). All cells were maintained at 37° C. in a humidified 5% CO2 incubator.
Following filtration through a Steriflip-NY 20 μm filter (Millipore Cat #SCNY00020), trypsinized cells were seeded in 100 microliters growth medium at 2,000 (SW48) or 1,500 (SNU-407, DLD1-WRN-KO, HCT 116) cells/well into white, clear-bottom 96-well plates (Costar Cat #3903). Three replicate plates were prepared for each compound treatment condition. In addition, one plate (termed “day 0”) was prepared to quantify the number of viable cells at the time of compound addition. Following overnight incubation at 37° C. in a humidified 5% CO2 atmosphere, eight 3-fold serial dilutions of a given compound stock (obtained at a concentration of 10 mM in DMSO and stored at 4° C.) were dispensed directly into each of the triplicate assay plates using a HP 300D non-contact Digital Dispenser (TECAN). The final concentration of DMSO was normalized to 0.1% in all wells. 96 hours after compound addition, cellular ATP levels as a surrogate for cell viability was assessed following addition of 50 microliters CellTiterGlo (Promega Cat #G7573) reagent and luminescence quantification on a MPLEX multi-mode plate-reader (TECAN) following a 10 minute incubation at room temperature. The number of viable cells in the “day 0” plate were quantified identically on the day of compound addition.
For data analysis, the assay background signal that was determined in wells containing medium, but no cells, was subtracted from all other data points prior to further calculations. The extent of growth inhibition and potential cell kill was assessed by comparing the ATP levels (measured using CellTiterGlo, Promega) in compound-treated cells with those present at the time of compound addition. To this end, the following conditional concept was programmatically applied in HELIOS, an in-house software applying a multi-step decision tree to arrive at optimal concentration response curve fits (Gubler et al, SLAS DOI: 10.1177/2472555217752140) to calculate % growth (% G) for each compound-treated well: % G=(T−V0)/V0))*100 when T<V0, and % G=(T−V0)/(V−V0)))*100 when T≥V0, where V0 is the viability level at time of compound addition, while V and T represent vehicle-control and compound-treated viability levels, respectively, at the end of the compound incubation. 100%, 0% and −100% signify absence of growth inhibition, growth stasis, and complete cell kill, respectively. Compound concentrations leading to half-maximal growth inhibition (GI50) and residual cell viability at the highest tested compound concentration (Data (cmax), expressed in percent) were routinely calculated. Data analysis can also be carried out using commercially available software designed to derive IC50 values using 4-parameter fits (e.g. GraphPad Prism, XL fit). […]

DLD1-WRN-KO cells = experiment: Proliferation assay DLD1-WRN-KO (CellTiterGlo, off-target effects); assay type: cell-based; conditions: 96 hours, geometric mean of at least 2
Procedure: as §1, with “The” for “The colon carcinoma cell lines SW48 (RRID: CVCL_1724), HCT 116 (RRID: CVCL_0291) and SNU-407 (RRID: CVCL_5058) were obtained from ATCC. The”, “effects. […]” for “effects.”
Three replicate plates were prepared for each compound treatment condition. In addition, one plate (termed “day 0”) was prepared to quantify the number of viable cells at the time of compound addition. Following overnight incubation at 37° C. in a humidified 5% CO2 atmosphere, eight 3-fold serial dilutions of a given compound stock (obtained at a concentration of 10 mM in DMSO and stored at 4° C.) were dispensed directly into each of the triplicate assay plates using a HP 300D non-contact Digital Dispenser (TECAN). The final concentration of DMSO was normalized to 0.1% in all wells. 96 hours after compound addition, cellular ATP levels as a surrogate for cell viability was assessed following addition of 50 microliters CellTiterGlo (Promega Cat #G7573) reagent and luminescence quantification on a MPLEX multi-mode plate-reader (TECAN) following a 10 minute incubation at room temperature. The number of viable cells in the “day 0” plate were quantified identically on the day of compound addition.
For data analysis, the assay background signal that was determined in wells containing medium, but no cells, was subtracted from all other data points prior to further calculations. The extent of growth inhibition and potential cell kill was assessed by comparing the ATP levels (measured using CellTiterGlo, Promega) in compound-treated cells with those present at the time of compound addition. […] 100%, 0% and −100% signify absence of growth inhibition, growth stasis, and complete cell kill, respectively. Compound concentrations leading to half-maximal growth inhibition (GI50) and residual cell viability at the highest tested compound concentration (Data (cmax), expressed in percent) were routinely calculated. Data analysis can also be carried out using commercially available software designed to derive IC50 values using 4-parameter fits (e.g. GraphPad Prism, XL fit). The reported GI50 values are the geometrical means of at least 2 independent replicates.

[1] = target: T1, WRN helicase (aa N517-P1238) (Homo sapiens, UniProt Q14191); experiment: WRN ATPase assay (DNA dependent ATP hydrolysis, ADP-Glo); assay type: biochemical; conditions: 3 hours pre-incubation, 300 micromolar ATP, FLAP26 DNA; geometric mean of at least 2
T1 construct: The core helicase motif of the WRN protein (aa N517-P1238) was produced for this assay; His (N); ZZ (N); 3C protease cleavage site (N); made in house; host or cells: Sf21 insect cells (baculovirus; virus and BIICs made in SF9)
T1 sequence (Q14191 517-1238): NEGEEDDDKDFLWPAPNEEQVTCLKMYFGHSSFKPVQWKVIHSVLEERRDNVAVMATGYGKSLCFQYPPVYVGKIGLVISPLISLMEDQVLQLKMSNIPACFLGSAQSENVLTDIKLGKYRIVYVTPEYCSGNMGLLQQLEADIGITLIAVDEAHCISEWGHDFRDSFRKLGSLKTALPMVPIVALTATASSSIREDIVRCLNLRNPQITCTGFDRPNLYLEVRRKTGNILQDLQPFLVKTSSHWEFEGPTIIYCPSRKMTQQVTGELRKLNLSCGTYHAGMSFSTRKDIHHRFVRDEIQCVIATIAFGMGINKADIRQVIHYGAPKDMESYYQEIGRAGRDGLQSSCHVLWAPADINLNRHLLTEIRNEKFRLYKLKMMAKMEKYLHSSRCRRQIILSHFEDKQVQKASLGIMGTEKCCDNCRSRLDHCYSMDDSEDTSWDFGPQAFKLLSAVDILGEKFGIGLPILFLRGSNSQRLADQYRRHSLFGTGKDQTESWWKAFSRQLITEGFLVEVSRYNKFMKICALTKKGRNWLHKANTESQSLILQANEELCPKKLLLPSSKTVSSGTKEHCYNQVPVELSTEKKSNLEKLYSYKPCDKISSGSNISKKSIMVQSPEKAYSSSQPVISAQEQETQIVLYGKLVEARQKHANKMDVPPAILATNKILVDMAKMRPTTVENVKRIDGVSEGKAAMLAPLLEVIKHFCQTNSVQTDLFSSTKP
Excerpt: An ATPase assay was set up to measure the DNA dependent ATP hydrolysis activity of WRN helicase. This assay was used also to assess the inhibition properties of compounds of the invention on DNA dependent WRN ATPase activity.
The core helicase motif of the WRN protein (aa N517-P1238) was produced for this assay (protein production as described above). […] The ADP-Glo assay kit (Promega, Madison, WI) allowing the quantification of ADP produced in ATP hydrolysis reactions was used for setting up this assay.
Time course experiments were first performed in order to determine the best enzymatic assay conditions (including buffer conditions, reaction time and concentrations of protein, ATP and DNA substrates). A typical reaction consists of 10 nM WRN protein, 0.2 nM FLAP26, and 300 micromolar ATP in the following assay buffer: 30 mM Tris pH7.5, 2 mM MgCl2, 0.02% BSA, 50 mM NaCl, 0.1% pluronic F127 prepared in DNAse free water.
To evaluate the inhibition properties of compounds of the invention, serial dilutions were prepared in DMSO (10 half log dilutions from a 10 mM DMSO solution). […] The reaction was stopped with the addition of 5 microliters of the first ADP-Glo reagent and incubated for one hour to remove the excess amount of ATP. Afterwards, 10 microliters of ATP detection reagent was added and incubated for an additional hour before reading. Luminescence output was recorded using Tecan 1000 reader, with 5 minutes delay before reading. Each concentration of compound was tested in duplicates in the assay plate.
Following normalization of activity values for the wells to % inhibition (% inhibition=[(high control-sample)/(high control-low control)]×100), IC50 fitting was carried out from the duplicate determinations present on each plate according to [4]. Data analysis can also be carried out using commercially available software designed to derive IC50 values using 4-parameter fits (e.g. GraphPad Prism, XL fit). The reported IC50 values are the geometrical means of at least 2 independent replicates.

[2] = SW48 colon carcinoma cells, 96 hours, CellTiterGlo, geometric mean of at least 2

| Structure (SMILES) | GI50 (SW48 cells; [2]) [nM] | GI50 (DLD1-WRN-KO cells) [µM] | pIC50 [1] | GI50 (SW48 cells) [nM] |
| --- | --- | --- | --- | --- |
| CC(=O)N1CCN(c2c(C)n(CC(=O)Nc3ccc(C(F)(F)F)cc3)c3nc(N4CC5CC5C4)nn3c2=O)CC1 (stereo not shown) [Example 125, 2-(6-(4-acetylpiperazin-1-yl)-2-(3-azabicyclo[3.1.0]hexan-3-yl)-5-methyl-7-oxo-[1,2,4]triazolo[1,5-a]pyrimidin-4(7H)-yl)-N-(4-(trifluoromethyl)phenyl)acetamide] | 3000 | > 10 | 6.10 |  |
| CCc1c(N2CCN(C(=O)c3ccc(F)c(F)c3O)CC2)c(=O)n2nc(C3=CCCCO3)nc2n1CC(=O)Nc1ccc(C(F)(F)F)cc1 [Example 39, 2-(6-(4-(3,4-difluoro-2-hydroxybenzoyl)piperazin-1-yl)-2-(3,4-dihydro-2H-pyran-6-yl)-5-ethyl-7-oxo-[1,2,4]triazolo[1,5-a]pyrimidin-4(7H)-yl)-N-(4-(trifluoromethyl)phenyl)acetamide] | 300 | 4 | 7.52 |  |
| CC(=O)N1CCN(c2c(C)n(CC(=O)Nc3ccc(C(F)(F)F)cc3)c3nc(C4=CCOCC4)nn3c2=O)C[C@H]1C [Example 63, (R)-2-(6-(4-acetyl-3-methylpiperazin-1-yl)-2-(3,6-dihydro-2H-pyran-4-yl)-5-methyl-7-oxo-[1,2,4]triazolo[1,5-a]pyrimidin-4(7H)-yl)-N-(4-(trifluoromethyl)phenyl)acetamide] | 4000 | > 10 | 6.30 |  |
| CCc1ccc(NC(=O)Cn2c(C)c(N3CCN(C(C)=O)CC3)c(=O)n3nc(C4=CCOCC4)nc23)cc1F [Example 92, 2-(6-(4-acetylpiperazin-1-yl)-2-(3,6-dihydro-2H-pyran-4-yl)-5-methyl-7-oxo-[1,2,4]triazolo[1,5-a]pyrimidin-4(7H)-yl)-N-(4-ethyl-3-fluorophenyl)acetamide] | 4000 | > 10 | 6.15 |  |
| CCc1c(N2CCN(C(=O)c3nccc4cc[nH]c34)CC2)c(=O)n2nc(C3=CCOCC3)nc2n1CC(=O)Nc1ccc(C(F)(F)F)cc1C [Example 41, 2-(6-(4-(1H-pyrrolo[2,3-c]pyridine-7-carbonyl)piperazin-1-yl)-2-(3,6-dihydro-2H-pyran-4-yl)-5-ethyl-7-oxo-[1,2,4]triazolo[1,5-a]pyrimidin-4(7H)-yl)-N-(2-methyl-4-(trifluoromethyl)phenyl)acetamide] |  |  |  | 100 |
| Cc1c(N2CCN(C(=O)NNC(=O)C(F)(F)F)CC2)c(=O)n2nc(C3=CCOCC3)nc2n1CC(=O)Nc1ccc(C(F)(F)F)cc1 [Example 165, 2-(2-(3,6-dihydro-2H-pyran-4-yl)-5-methyl-7-oxo-6-(4-(2-(2,2,2-trifluoroacetyl)hydrazine-1-carbonyl)piperazin-1-yl)-[1,2,4]triazolo[1,5-a]pyrimidin-4(7H)-yl)-N-(4-(trifluoromethyl)phenyl)acetamide] | > 10000 |  | 7.05 |  |
| CCc1ccc(NC(=O)Cn2c(C)c(C3CCN(C(C)=O)CC3)c(=O)n3nc(C4=CCOCC4)nc23)cc1Cl [Example 144, 2-(6-(1-acetylpiperidin-4-yl)-2-(3,6-dihydro-2H-pyran-4-yl)-5-methyl-7-oxo-[1,2,4]triazolo[1,5-a]pyrimidin-4(7H)-yl)-N-(3-chloro-4-ethylphenyl)acetamide] | 3000 |  |  |  |
| CC(=O)N1CCC(c2c(C)n(CC(=O)Nc3ccc(C(F)(F)F)cc3)c3nc(C4=CCCCC4)nn3c2=O)CC1 [Example 145, 2-(6-(1-acetylpiperidin-4-yl)-2-(cyclohex-1-en-1-yl)-5-methyl-7-oxo-[1,2,4]triazolo[1,5-a]pyrimidin-4(7H)-yl)-N-(4-(trifluoromethyl)phenyl)acetamide] | 2000 |  |  |  |
| Cc1c(N2CCN(C(=O)c3cc(F)ccc3O)CC2)c(=O)n2nc(N3CCOCC3)nc2n1CC(=O)Nc1ccc(C(F)(F)F)cc1 [Example 151, 2-(6-(4-(5-fluoro-2-hydroxybenzoyl)piperazin-1-yl)-5-methyl-2-morpholino-7-oxo-[1,2,4]triazolo[1,5-a]pyrimidin-4(7H)-yl)-N-(4-(trifluoromethyl)phenyl)acetamide] | 4000 |  | 6.70 |  |
